What was measured:
Jurkat [1] = assay: Induction of ROS generation in human Jurkat cells assessed as apoptotic cells at 200 nM after 24 hrs by MitoSox Red/annexin V-CF488A staining based flow cytometric analysis (reference value: 3.18%); format: functional
Jurkat [2] = assay: Induction of apoptosis in human Jurkat cells assessed as viable cells at 50 nM after 24 hrs by Annexin V/7-AAD staining.based flow cytometric analysis relative to control; format: functional; settings: read-out: Activity
[3] = Effect on total CREB level in human jurkat cells at 400 nM by magnetic bead based immunoassay; format: cell-based; settings: 0.4 µM
Jurkat [4] = assay: Induction of mitochondrial membrane potential loss in human Jurkat cells after 4 hrs by flow cytometric analysis; format: functional, cell-based
Jurkat [5] = assay: Induction of ROS generation in human Jurkat cells assessed as apoptotic cells with clear mitochondrial damages at 200 nM after 24 hrs by MitoSox Red/annexin V-CF488A staining based flow cytometric analysis (reference value: 0.39%); format: functional
Jurkat [6] = assay: Induction of cell cycle arrest in human Jurkat cells assessed as accumulation at G1 phase at 200 nM after 24 hrs by Guava Cell Cycle reagent based flow cytometric analysis relative to control; format: functional
Jurkat [7] = assay: Induction of apoptosis in human Jurkat cells assessed as necrotic cells at 50 nM after 24 hrs by Annexin V/7-AAD staining.based flow cytometric analysis relative to control; format: functional
Jurkat [8] = assay: Induction of cell cycle arrest in human Jurkat cells assessed as accumulation at sub-G1 phase at 400 nM after 24 hrs by Guava Cell Cycle reagent based flow cytometric analysis relative to control; format: functional
Jurkat [9] = assay: Induction of cell cycle arrest in human Jurkat cells assessed as accumulation at G1 phase at 100 nM after 24 hrs by Guava Cell Cycle reagent based flow cytometric analysis relative to control; format: functional
Jurkat [10] = assay: Cytotoxicity against human Jurkat cells assessed as reduction in cell viability by 7-AAD staining based flow cytometric analysis; format: functional
Jurkat [11] = assay: Induction of mitochondrial membrane potential loss in human Jurkat cells assessed as live cells at 400 nM after 4 hrs by MitoSense Red/7-AAD. flow cytometric analysis relative to control; format: functional
Jurkat [12] = assay: Induction of cell cycle arrest in human Jurkat cells assessed as accumulation at super-G2 phase at 400 nM after 24 hrs by Guava Cell Cycle reagent based flow cytometric analysis relative to control; format: functional
Jurkat [13] = assay: Induction of ROS generation in human Jurkat cells assessed as apoptotic cells at 200 nM after 4 hrs by MitoSox Red/annexin V-CF488A staining based flow cytometric analysis (reference value: 3.18%); format: functional
Jurkat [14] = assay: Induction of cell cycle arrest in human Jurkat cells assessed as accumulation at G2 phase at 400 nM after 24 hrs by Guava Cell Cycle reagent based flow cytometric analysis relative to control; format: functional
[15] = Effect on total AKT level in human jurkat cells at 400 nM by magnetic bead based immunoassay; format: cell-based; settings: 0.4 µM
Jurkat [16] = assay: Induction of apoptosis in human Jurkat cells assessed as viable cells at 100 nM after 24 hrs by Annexin V/7-AAD staining.based flow cytometric analysis relative to control; format: functional; settings: read-out: Activity
Jurkat [17] = assay: Induction of apoptosis in human Jurkat cells assessed as necrotic cells at 400 nM after 24 hrs by Annexin V/7-AAD staining.based flow cytometric analysis relative to control; format: functional
[18] = Effect on total NFKappaB level in human jurkat cells at 400 nM by magnetic bead based immunoassay; format: cell-based; settings: 0.4 µM
U-937 = assay: Cytotoxicity against human U937 cells assessed as reduction in cell viability by 7-AAD staining based flow cytometric analysis; format: functional
Jurkat [19] = assay: Induction of apoptosis in human Jurkat cells assessed as necrotic cells at 100 nM after 24 hrs by Annexin V/7-AAD staining.based flow cytometric analysis relative to control; format: functional
HL-60 = assay: Cytotoxicity against human HL-60 cells assessed as reduction in cell viability by 7-AAD staining based flow cytometric analysis; format: functional
[20] = Effect on total JNK in human jurkat cells at 400 nM by magnetic bead based immunoassay; format: cell-based; settings: 0.4 µM
Jurkat [21] = assay: Induction of cell cycle arrest in human Jurkat cells assessed as accumulation at G2/G1 phase at 50 nM after 24 hrs by Guava Cell Cycle reagent based flow cytometric analysis relative to control; format: functional
Jurkat [22] = assay: Induction of cell cycle arrest in human Jurkat cells assessed as accumulation at G2 phase at 200 nM after 24 hrs by Guava Cell Cycle reagent based flow cytometric analysis relative to control; format: functional
Jurkat [23] = assay: Induction of apoptosis in human Jurkat cells assessed as viable cells at 200 nM after 24 hrs by Annexin V/7-AAD staining.based flow cytometric analysis relative to control; format: functional; settings: read-out: Activity
[24] = Effect on total STAT5 level in human jurkat cells at 400 nM by magnetic bead based immunoassay; format: cell-based; settings: 0.4 µM
Jurkat [25] = assay: Induction of cell cycle arrest in human Jurkat cells assessed as accumulation at sub-G1 phase at 50 nM after 24 hrs by Guava Cell Cycle reagent based flow cytometric analysis relative to control; format: functional
Jurkat [26] = assay: Induction of ROS generation in human Jurkat cells assessed as living undamaged cells at 200 nM after 24 hrs by MitoSox Red/annexin V-CF488A staining based flow cytometric analysis (reference value: 95.44%); format: functional
[27] = Effect on total STAT3 level in human jurkat cells at 400 nM by magnetic bead based immunoassay; format: cell-based; settings: 0.4 µM
Jurkat [28] = assay: Induction of apoptosis in human Jurkat cells assessed as early apoptotic cells at 100 nM after 24 hrs by Annexin V/7-AAD staining.based flow cytometric analysis relative to control; format: functional
Jurkat [29] = assay: Induction of ROS generation in human Jurkat cells assessed as living undamaged cells at 200 nM after 2 hrs by MitoSox Red/annexin V-CF488A staining based flow cytometric analysis (reference value: 95.44%); format: functional
Jurkat [30] = assay: Induction of cell cycle arrest in human Jurkat cells assessed as accumulation at G1 phase at 50 nM after 24 hrs by Guava Cell Cycle reagent based flow cytometric analysis relative to control; format: functional
Jurkat [31] = assay: Induction of apoptosis in human Jurkat cells assessed as late apoptotic cells at 100 nM after 24 hrs by Annexin V/7-AAD staining.based flow cytometric analysis relative to control; format: functional
[32] = Effect on total p38 level in human jurkat cells at 400 nM by magnetic bead based immunoassay; format: cell-based; settings: 0.4 µM
Jurkat [33] = assay: Induction of ROS generation in human Jurkat cells assessed as apoptotic cells with clear mitochondrial damages at 200 nM after 4 hrs by MitoSox Red/annexin V-CF488A staining based flow cytometric analysis (reference value: 0.39%); format: functional
Jurkat [34] = assay: Induction of mitochondrial membrane potential loss in human Jurkat cells assessed as live cells at 200 nM after 4 hrs by MitoSense Red/7-AAD. flow cytometric analysis relative to control; format: functional
Jurkat [35] = assay: Induction of cell cycle arrest in human Jurkat cells assessed as accumulation at S phase at 50 nM after 24 hrs by Guava Cell Cycle reagent based flow cytometric analysis relative to control; format: functional
Jurkat [36] = assay: Induction of cell cycle arrest in human Jurkat cells assessed as accumulation at super-G2 phase at 50 nM after 24 hrs by Guava Cell Cycle reagent based flow cytometric analysis relative to control; format: functional
Jurkat [37] = assay: Induction of apoptosis in human Jurkat cells assessed as early apoptotic cells at 200 nM after 24 hrs by Annexin V/7-AAD staining.based flow cytometric analysis relative to control; format: functional

**Q.** Which Activity (Jurkat [1]) does the source give for `C#C[C@H](O)CCCCCCCCC/C=C\CC/C=C\CC/C=C\CCCCCCCCCCCCCCCC` here?
**A.** Its Activity is 45.78%.

**Q.** What about the viability at 0.05 µM (Jurkat [2]) of the same compound?
**A.** Its viability at 0.05 µM is 59.8%.

**Q.** What about the Activity [3] of the same compound?
**A.** Its Activity is “Toxic”.

**Q.** And the Activity (Jurkat [4])?
**A.** Its Activity is “Dose-dependent effect”.

**Q.** And the Activity (Jurkat [5])?
**A.** Its Activity is 20.58%.

**Q.** What about the Activity (Jurkat [6]) of the same compound?
**A.** The Activity was 33.86%.

**Q.** What about the Activity (Jurkat [7]) of the same compound?
**A.** Its Activity is 2.4%.

**Q.** And the Activity (Jurkat [8])?
**A.** Its Activity is 16.56%.

**Q.** And the Activity (Jurkat [9])?
**A.** The Activity was 34.96%.

**Q.** What about the IC50 (Jurkat [10]) of the same compound?
**A.** Its IC50 is 0.161 µM.

**Q.** What about the Activity (Jurkat [11]) of the same compound?
**A.** Its Activity is 63.45%.

**Q.** What about the Activity (Jurkat [12]) of the same compound?
**A.** The Activity was 1.85%.

**Q.** What about the Activity (Jurkat [13]) of the same compound?
**A.** The Activity was 3.67%.

**Q.** And the Activity (Jurkat [14])?
**A.** The Activity was 7.68%.

**Q.** And the Activity [15]?
**A.** The Activity was “Toxic”.

**Q.** What about the viability at 0.1 µM (Jurkat [16]) of the same compound?
**A.** Its viability at 0.1 µM is 41.7%.

**Q.** What about the Activity (Jurkat [17]) of the same compound?
**A.** The Activity was 1.01%.

**Q.** And the Activity [18]?
**A.** The Activity was “Toxic”.

**Q.** What about the IC50 (U-937) of the same compound?
**A.** The IC50 was 0.124 µM.

**Q.** What about the Activity (Jurkat [19]) of the same compound?
**A.** Its Activity is 5.89%.

**Q.** And the IC50 (HL-60)?
**A.** The IC50 was 0.093 µM.

**Q.** What about the Activity [20] of the same compound?
**A.** Its Activity is “Toxic”.

**Q.** And the Activity (Jurkat [21])?
**A.** Its Activity is 1.91%.

**Q.** What about the Activity (Jurkat [22]) of the same compound?
**A.** Its Activity is 8.65%.

**Q.** And the viability at 0.2 µM (Jurkat [23])?
**A.** The viability at 0.2 µM was 36.1%.

**Q.** What about the Activity [24] of the same compound?
**A.** The Activity was “Toxic”.

**Q.** And the Activity (Jurkat [25])?
**A.** Its Activity is 10.76%.

**Q.** What about the Activity (Jurkat [26]) of the same compound?
**A.** The Activity was 33.64%.

**Q.** What about the Activity [27] of the same compound?
**A.** Its Activity is “Toxic”.

**Q.** What about the Activity (Jurkat [28]) of the same compound?
**A.** Its Activity is 12.63%.

**Q.** And the Activity (Jurkat [29])?
**A.** The Activity was 70.77%.

**Q.** And the Activity (Jurkat [30])?
**A.** Its Activity is 44.65%.

**Q.** What about the Activity (Jurkat [31]) of the same compound?
**A.** Its Activity is 39.78%.

**Q.** And the Activity [32]?
**A.** Its Activity is “Toxic”.

**Q.** And the Activity (Jurkat [33])?
**A.** The Activity was 25.4%.

**Q.** And the Activity (Jurkat [34])?
**A.** Its Activity is 95.64%.

**Q.** And the Activity (Jurkat [35])?
**A.** Its Activity is 27.85%.

**Q.** What about the Activity (Jurkat [36]) of the same compound?
**A.** The Activity was 1.35%.

**Q.** What about the Activity (Jurkat [37]) of the same compound?
**A.** The Activity was 13.2%.

— ChEMBL document CHEMBL4673230, “Total Synthesis of Natural Lembehyne C and Investigation of Its Cytotoxic Properties” (J Nat Prod, 2020)
